Laboratory results taken from patent publication US20070161697A1, “Hydrazide type compounds and the use thereof in pharmaceutical compositions for the treatment of cardiovascular diseases” (priority 2004, published 2007).

Columns and labels:
[1] = tested on: ApoE −/− mice; assay: Total cholesterol in plasma, ApoE −/− mice on dietary regimen rich in cholesterol; format: in vivo; conditions: for Plasma total cholesterol level: untreated 7.27 ± 0.55
Description: (§1) Firstly, mice devoid of the coding gene for Apo lipoprotein E (ApoE −/−) have been used. These mice represent a model of choice of studying early atherosclerosis and development of a plaque rich in foamy macrophages. Male C57BL/6J mice homozygote for deletion of the ApoE gene were subjected to a normal dietary regimen until the age of eight weeks. These mice (n=8 per group) subsequently received ad libitum and for 12 weeks either a dietary regimen not enriched with cholesterol or fat, or an enriched regimen, containing 1.5 g/kg of cholesterol and 200 g/kg of fat of milk origin. The untreated mice underwent daily intraperitoneal injections of a solution containing DMSO at 10%. […] Following the blood sample for the biochemical analyses, the mice were killed.
The circulating total cholesterol may be measured by enzymatic assay using the commercially available kit. This assay may for example use an enzymatic sequence of the cholesterol-esterase/cholesteroloxydase/chromogenic peroxidase type. In summary, the total esterified cholesterol is transformed into free cholesterol and fatty acid by the action of cholesterol esterase. The non-esterified cholesterol is subsequently measured by the formation of quinoeimine in the presence of cholesterol oxidase and peroxidise. The intensity of the quinoneimine coloration is proportional to the quantity of cholesterol present in the sample.
When mice are subjected to a dietary regimen rich in cholesterol, the total cholesterol level decreases from a value of 7.27±0.55 g/L to a value of 6.86±0.65 g/L, i.e. a variation of 5.6%. This effect observed is dependent on the dose of CGP 02-01.

[2] = tested on: Wistar rats; assay: Total cholesterol in plasma, rats on dietary regimen rich in fructose; format: in vivo; conditions: 50 mg/kg oral, 3 weeks of treatment
Description: Secondly, the activity of the compound CGP 02-01 was studied using a reference rat-fructose model. Groups of Wistar rats (n=12) were subjected for 3 weeks to a dietary regimen containing […] of fructose. Under these conditions, the rats develop a metabolic syndrome comprising hyperglycaemia, hyperinsulinaemia, hypercholesterolaemia and hypertriglyceridaemia. Groups of rats subsequently received by forced feeding 50 mg/kg of the compound CGP 02-01 dissolved in a 2% tween solution prepared in methylcellulose. The blood samples for the biochemical analyses were performed after 1, 2 and 3 weeks. Independent groups of rats wee treated under the same conditions with metformin hydrochloride at a dose of 50 mg/kg. The metformin served as a reference in this metabolic syndrome model. The circulating total cholesterol may be measured by enzymatic assay using the commercially available kit. This assay may for example use an enzymatic sequence of the cholesterol-esterase/cholesteroloxydase/chromogenic peroxidase type. In summary, the total esterified cholesterol is transformed into free cholesterol and fatty acid by the action of cholesterol esterase. The non-esterified cholesterol is subsequently measured by the formation of quinoeimine in the presence of cholesterol oxidase and peroxidise. The intensity of the quinoneimine coloration is proportional to the quantity of cholesterol present in the sample.

[3] = tested on: ApoE −/− mice; assay: Circulating triglycerides, ApoE −/− mice on regimen rich in cholesterol and fat; format: in vivo; conditions: 1 mg/kg; 3 months
Description: Firstly, mice devoid of the coding gene for Apo lipoprotein E (ApoE −/−) have been used. These mice represent a model of choice of studying early atherosclerosis and development of a plaque rich in foamy macrophages. Male C57BL/6J mice homozygote for deletion of the ApoE gene were subjected to a normal dietary regimen until the age of eight weeks. These mice (n=8 per group) subsequently received ad libitum and for 12 weeks either a dietary regimen not enriched with cholesterol or fat, or an enriched regimen, containing 1.5 g/kg of cholesterol and 200 g/kg of fat of milk origin. The untreated mice underwent daily intraperitoneal injections of a solution containing DMSO at 10%. The treated mice received by intraperitoneal injection the same solution containing 2 or 20 μg (i.e. 0.1 mg/kg/day or 1 mg/kg/day) of the compound CGP 02-01. […]
Assay of serum triglycerides may be performed enzymatically using the commercially available kit. […] The glycerol 3 phosphate is subsequently transformed into dihydroxyacetone in generating oxygenated water (H202) which may be detected by formation of quinoneimine in the presence of parachlorophenol, amino-4-antipyrin and peroxidase. The intensity of the quinoneimine coloration is subsequently measured at 505 nm. This coloration is proportional to the quantity of triglycerides present in the sample.

[4] = tested on: ApoE −/− mice; assay: HDL level in plasma, ApoE −/− mice on regimen rich in cholesterol; format: in vivo
Description: as §1
The plasma HDL level is measured by tried and trusted commercial methods which use high density lipoprotein separation reagents and by measurement of the cholesterol level associated with these high molecular weight lipoproteins (Biomérieux kit ref. 61533 for example).

[5] = tested on: Wistar rats; assay: Plasma glucose level (glycaemia) in rats on fructose-rich regimen; format: in vivo; conditions: oral, 21 days of treatment, FIG. 17
Description: Secondly, the activity of the compound CGP 02-01 was studied using a reference rat-fructose model. Groups of Wistar rats (n=12) were subjected for 3 weeks to a dietary regimen containing […] of fructose. […] Groups of rats subsequently received by forced feeding 50 mg/kg of the compound CGP 02-01 dissolved in a 2% tween solution prepared in methylcellulose. The blood samples for the biochemical analyses were performed after 1, 2 and 3 weeks. Independent groups of rats wee treated under the same conditions with metformin hydrochloride at a dose of 50 mg/kg. The metformin served as a reference in this metabolic syndrome model.

[6] = tested on: rats; assay: Hyperglycaemia test (glucose tolerance) in rats on fructose-rich regimen; format: in vivo; conditions: oral, glucose shock after 14th day, FIG. 18
Description: Rats (n=12) were subjected to a dietary regimen rich in fructose (10%) for 21 days. After the 14th day, hyperglycaemic shock is induced by administration of 2 g/kg of glucose in the presence or absence of the compound CGP 02-01 administered via the oral route. The plasma glucose level is subsequently measured.

COc1cc(O)c(/C=N/NC(=O)c2cc3ccccc3s2)c(OC)c1 [CGP02-01, N′-[(1E)-(2-hydroxy-4,6-dimethoxyphenyl)methylene]-1-benzothiophene-2-carbohydrazide]
Plasma total cholesterol level ([1]; 0.4 mg/kg): 8.08 ± 0.62 g/L
Variation of total cholesterol level vs untreated ([1]; 1 mg/kg, 3 months): 5.6%
Plasma total cholesterol level ([1]; 1 mg/kg, 3 months): 6.86 ± 0.65 g/L
Reduction in total cholesterol [2]: 54.5%
Plasma total cholesterol level ([2]; control 0.79±0.05): 0.36 ± 0.03 g/L
Variation of plasma triglyceride level, treated in relation to untreated mice [3]: twice as great
Plasma HDL level ([4]; 0.1 mg/kg, cholesterol-rich regimen, untreated 0.11 ± 0.05): 0.15 ± 0.06 g/L
Plasma HDL level ([4]; 1 mg/kg, cholesterol-rich regimen, untreated 0.11 ± 0.05): 0.15 ± 0.05 g/L
Variation of plasma HDL level ([4]; regimen rich in cholesterol and fatty acid): 38.2%
Plasma HDL level ([4]; regimen rich in cholesterol and fatty acid, dose not stated, control 0.11±0.005): 0.15 ± 0.005 g/L
Increase in glycaemia [5]: stabilises this increase in glycaemia
Effect against induced hyperglycaemia (2 g/kg glucose) [6]: protective effect
melting point: 205.4 °C
